Measurements from patent US20200031778A1, “NOVEL 5-SUBSTITUTED IMIDAZOLYLMETHYL DERIVATIVES” (Bayer CropScience Aktiengesellschaft, priority 2016, published 2020).

Legend:
[1] = Log P by HPLC on reversed phase columns (EEC directive 79/831 Annex V.A8; methods [a], [b], [c]); format: physicochemical; conditions: for chromatographic logP: reversed phase HPLC column, method [a]: LC-UV, acidic range, 0.1% formic acid in water and acetonitrile as eluent (linear gradient from 10% to 95% acetonitrile)
In short: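 Log P derived from retention times, interpolated linearly between bracketing straight-chain alkan-2-ones (3–16 carbons) of known Log P. Eluents ran acetonitrile 10% to 95% against water with 0.1% formic acid ([a], acidic), 0.001 M ammonium acetate ([b], neutral) or 0.1% phosphoric acid ([c], acidic); UV read-out.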

[2] = test system: Sphaerotheca fuliginea; assay: Example IX-C: in vivo preventive test on Sphaerotheca fuliginea (powdery mildew on cucurbits); conditions: Podosphaera fuliginea, 360 h; compounds of formula IX; 500 ppm of active ingredient; gherkin plants, preventive spray; evaluated 15 days after inoculation; read-out: efficacy
Experimental: Example IX-C: In Vivo Preventive Test on Sphaerotheca Fuliginea (Powdery Mildew on Cucurbits)
(§1) The active ingredients are made soluble and homogenized in a mixture of Dimethyl sulfoxide/Acetone/Tween® 80 and then diluted in water to the desired concentration.
The young plants of gherkin are treated by spraying the active ingredient prepared as described above. Control plants are treated only with an aqueous solution of Acetone/Dimethyl sulfoxide/Tween® 80.
After 24 hours, the plants are contaminated by spraying the leaves with an aqueous suspension of Sphaerotheca fuliginea spores. The contaminated gherkin plants are incubated for 72 hours at 18° C. and at 100% relative humidity and then for 12 days at 20° C. and at 70-80% relative humidity.
The test is evaluated 15 days after the inoculation. 0% means an efficacy which corresponds to that of the control plants while an efficacy of 100% means that no disease is observed.

[3] = test system: Septoria tritici; assay: Example IX-B: in vivo preventive test on Septoria tritici (leaf spot on wheat); conditions: Zymoseptoria tritici, 576 h; compounds of formula IX; 500 ppm of active ingredient; wheat plants, preventive spray; evaluated 24 days after inoculation; read-out: efficacy
Experimental: Example IX-B: In Vivo Preventive Test on Septoria Tritici (Leaf Spot on Wheat)
as §1
The young plants of wheat are treated by spraying the active ingredient prepared as described above. Control plants are treated only with an aqueous solution of Acetone/Dimethyl sulfoxide/Tween® 80.
After 24 hours, the plants are contaminated by spraying the leaves with an aqueous suspension of Septoria tritici spores. The contaminated wheat plants are incubated for 72 hours at 18° C. and at 100% relative humidity and then for 21 days at 20° C. and at 90% relative humidity.
The test is evaluated 24 days after the inoculation. 0% means an efficacy which corresponds to that of the control plants while an efficacy of 100% means that no disease is observed.

Compound	chromatographic logP [1]	pest or weed control at 500 ppm [2]	pest or weed control at 500 ppm [3]	LogP [1]
N#Cc1cncn1CC(=O)c1ccccc1C(F)(F)F [IX-138]	2.07	90 to 100%	–	–
O=C(Cn1cncc1F)c1ccc(Oc2ccc(Br)nc2)nc1C(F)(F)F [IX-142]	2.14	90 to 100%	90 to 100%	–
O=C(Cn1cncc1Br)c1ccc(Oc2ccc(Cl)nc2)nc1Cl [IX-27]	2.13	90 to 100%	90 to 100%	–
O=C(Cn1cncc1Cl)c1ncc(Oc2ccccc2)cc1Cl [IX-01]	2.44	–	80 to 89%	–
O=C(Cn1cncc1Cl)c1ccc(F)cc1Br [IX-35]	1.57	90 to 100%	–	–
N#Cc1ccc(Oc2ccc(C(=O)Cn3cncc3Cl)c(Cl)c2)cc1 [IX-12]	2.32	90 to 100%	90 to 100%	–
N#Cc1cncn1CC(=O)c1cnc(Oc2ccc(Cl)nc2)cc1C(F)(F)F [IX-141]	2.62	90 to 100%	90 to 100%	–
N#Cc1cncn1CC(=O)c1ccccc1F [IX-113]	1.65	–	70 to 79%	–
O=C(Cn1cncc1Cl)c1ccc(Oc2ccc(C(F)(F)F)cc2)c(Br)c1 [IX-16]	3.29	–	90 to 100%	–
N#Cc1cncn1CC(=O)c1ccc(Oc2ccc(Br)nc2)cc1Cl [IX-76]	2.7	–	90 to 100%	–
N#Cc1cncn1CC(=O)c1ccc(Oc2c(F)cc(Cl)cc2F)nc1C(F)(F)F [IX-124]	3.28	–	90 to 100%	–
COc1ccc(Oc2ccc(C(=O)Cn3cncc3Cl)c(C)n2)c(Cl)c1 [IX-25]	2.33	–	90 to 100%	–
N#Cc1cncn1CC(=O)c1ccccc1Br [IX-127]	1.79	–	90 to 100%	–
CC(=O)c1cncn1CC(=O)c1ccc(Oc2ccc(C(F)(F)F)nc2)nc1C(F)(F)F [IX-133]	2.6	–	90 to 100%	–
N#Cc1cncn1CC(=O)c1ccc(C(F)(F)F)cc1 [IX-117]	1.99	–	90 to 100%	–
COc1cc(F)ccc1C(=O)Cn1cncc1Cl [IX-11]	1.34	–	90 to 100%	–
O=C(Cn1cncc1Br)c1ccc(Oc2ccc(C(F)(F)F)cc2)c(Cl)c1 [IX-03]	3.23	–	90 to 100%	–
OC(Cn1cncc1Cl)c1ccc(Oc2ccc(I)cc2)cc1Cl (stereo not shown) [I-08]	–	–	–	2.94^[a]
CCCC(O)(Cn1cncc1C#N)c1ccc(Br)cc1Cl (stereo not shown) [I-423]	–	–	–	3.19^[a]

Compound	chromatographic logP [1]	pest or weed control at 500 ppm [2]	pest or weed control at 500 ppm [3]	LogP [1]
N#Cc1cncn1CC(O)(C#CC1CCCC1)CC1CC1 (stereo not shown) [I-452]	–	–	–	2.62^[a]
CC(O)(Cn1cncc1C#N)c1ccc(Oc2ccc(I)cc2)cc1Br (stereo not shown) [I-217]	–	–	–	3.81^[a]
CCCCC(O)(Cn1cncc1C#N)c1ccc(C(F)(F)F)cc1F (stereo not shown) [I-267]	–	–	–	3.35^[a]
C[Si](C)(CCC(O)(Cn1cncc1C#N)C1(F)CC1)c1ccccc1 (stereo not shown) [I-668]	–	–	–	3.30^[a]
N#Cc1cncn1CC(O)(C#Cc1ccccc1Cl)C1(Cl)CC1 (stereo not shown) [I-324]	–	–	–	2.73^[a]
COC(=O)COC(Cn1cncc1C#N)c1ccc(Oc2ccc(Br)cc2)cc1C(F)(F)F (stereo not shown) [I-94]	–	–	–	3.99^[a]
N#Cc1cncn1CC(O)(c1ccc(F)cc1F)C1CCCCC1 (stereo not shown) [I-481]	–	–	–	3.05^[a]
CC(O)(Cn1cncc1Cl)c1ccc(Oc2ccc(Br)nc2)cc1Cl (stereo not shown) [I-203]	–	–	–	2.11^[a]
CCCC(O)(Cn1cncc1C#N)c1ccccc1C(F)(F)F (stereo not shown) [I-313]	–	–	–	2.66^[a]
CCCC(O)(Cn1cncc1C#N)c1ccc(C2CC2)cc1Cl (stereo not shown) [I-407]	–	–	–	3.19^[a]
CC(C)(C)C#Cc1ccc(C(O)(Cn2cncc2C#N)C2(F)CC2)c(F)c1 (stereo not shown) [I-646]	–	–	–	3.57^[a]
N#Cc1cncn1CC(O)(c1ccc(S(F)(F)(F)(F)F)cc1)C1(F)CC1 (stereo not shown) [I-379]	–	–	–	2.78^[a]
CC(O)(Cn1cncc1F)c1cnc(Oc2ccc(Br)cc2)cc1C(F)(F)F (single isomer, unassigned) [I-221]	–	–	–	2.39^[a]
N#Cc1cncn1CC(O)(c1ccc(C#CC2CCCC2)cc1F)C1(Cl)CC1 (stereo not shown) [I-649]	–	–	–	3.99^[a]
N#Cc1cncn1CC(O)(CC1CC1)c1ccc(F)cc1Br (stereo not shown) [I-443]	–	–	–	2.78^[a]
N#Cc1cncn1CC(O)(c1cc(Br)ccc1Cl)C1(F)CC1 (stereo not shown) [I-633]	–	–	–	2.45^[a]
OC(Cn1cncc1F)c1ccc(Oc2ccc(Br)nc2)nc1C(F)(F)F (stereo not shown) [I-155]	–	–	–	1.75^[a]
N#Cc1cncn1CC(O)(c1ccc(Cl)nc1Br)C1(F)CC1 (stereo not shown) [I-556]	–	–	–	1.99^[a]
